Experimental data reported in patent publication US7595395B2, “Gabaergic agents to treat memory deficits” (priority 2005, dated 2009).

Legend:
[1] = test system: αxβ3γ2 (α = 1-6) BzR/GABA(A) subtypes; test: Binding across the BzR/GABA(A) subtypes (subtype selectivity in words); set-up: species or system human and rat
Experimental: The binding affinity of XLi093 (8) in vitro was determined on α1-6β3γ2 LTK cells and is illustrated in the Scheme as shown in FIG. 2
The affinity of all ligands at the 6 major recombinant GABAA/BzR subtypes was measured by competition for [^3H]Ro15-1788 binding to HEK-T cells expressing both human and rat GABAA/Bz receptors of composition α1β2γ2 (α1), α2β2γ2 (α2), α3β2γ2 (α3), α4β2γ2 (α4), α5β2γ2 (α5) and α6β2γ2 (α6). It is well known that the β2 and β3 subunits can be interchanged with no effect on Bz ligand affinity or efficacy. […] These studies are similar to those performed in the laboratory of Bryan Roth who has already expressed the receptors employing the work of Kucken et. al. and Gray et. al.
In brief, for membrane preparations, the cells were scraped on to the ice and diluted into 5 mL of phosphate buffered saline (pH=7.40) and cells pelleted by centrifugation for 5 min. at 4° C. The pellet was resuspended in 1 mL of 50 mM Tris-acetate buffer (pH 7.4) and centrifuged at 18,000 g for 20 min. […] The membranes were harvested in polyethyleneimine-pretreated Whatman GF/C filters and after drying and addition of scintillation cocktail, counted in a scintillation counter. […]

C57B1/6 mice [2] = test: Pavlovian fear conditioning, contextual memory, scopolamine impairment; assay type: in vivo; conditions: for fear conditioned contextual memory, impairment by scopolamine (in words): 10 mg/kg compound, 1 mg/kg scopolamine, mouse; for reversal of scopolamine induced memory deficits (in words): mice, dose not stated
Experimental: Because the hippocampus is involved in the regulation of events underlying learning and memory, α5 subtype selective agents were evaluated for their ability to modulate hippocampal-dependent and hippocampal-independent forms of memory using Pavlovian fear conditioning paradigms with mice or rats. The protocols for these studies were reported in references Bailey, D. J., Tetzlaff, J. E., Cook, J. M., He, X. H. and Helmstetter, F. J., “Effects of Hippocampal Injections of A Novel Ligand Selective for the Alpha 5 Beta 2 Gamma 2 Subunits of the GABA/Benzodiazepine Receptor on Pavlovian Conditioning,” Neurobiol. Learn. Mem., 78, 1-10 (2002); Delorey, T. M., Lin, R. C., Mcbrady, B., He, X. H., Cook, J. M., Lameh, J. and Loew, G. H., “Influence of Benzodiazepine Binding Site Ligands on Fear-Conditioned Contextual Memory,” Eur. J. Pharmacol., 426, 45-54 (2001).
(§1) Further, animal data for FIGS. 22-26 were obtained using experimental methodologies described in a previously published reference, Influence of benzodiazepine binding site ligands on fear-conditioned contextual memory European journal of Pharmacology, Volume 426, Issues 1-2, 24 Aug. 2001, Pages 45-54, Timothy M. DeLorey, Richard C. Lin, Brian McBrady, Xiaohui He, James M. Cook, Jelveh Lameh and Gilda H. Loew, which is incorporated by reference as if fully set forth here in its entirety. Selected sections of the reference are provided below:
Male C57B1/6 mice were obtained from Charles Rivers Laboratories (Holister, Calif.) at 6 weeks of age. Mice used in fear conditioning were between 7 and 12 weeks of age. Animals were housed eight to a cage in rooms with a normal 12-h light/12-h dark cycle (lights on 700-1900 h) with free access to food and water. Tests were conducted during the light phase between 1300 and 1700 h with a 20-min acclimation period in the testing room prior to drug or vehicle administration. All animal protocols used in this study conform to the guidelines determined by the National Institute of Health (USA) Office for Protection from Research Risks and are approved by the Animal Care and Use Committee of the Palo Alto Veterans Administration Medical Center, Palo, Alto, Calif. (USA).
Before testing each day, the mice were moved to a holding room and allowed to acclimate for at least 30 min. Each mouse received an i.p. injection of one of the following: vehicle, benzodiazepine binding site ligand (2-30 mg/kg), scopolamine (1 mg/kg), methylscopolamine (1 mg/kg) or scopolamine (1 mg/kg) combined with one of the benzodiazepine binding site ligands (2-30 mg/kg). The dose level chosen for each compound was one that neither elicited convulsions nor impaired locomotion. Twenty minutes after injection, the mice were placed individually in one of four identical experimental chambers (Med Associates, St. Albans, Vt.) that had been scented with 0.3% ammonium hydroxide solution before testing. Chambers were back-lit with fluorescent light with a white noise generator providing 70 dB of background noise. […] Twenty-four hours later, contextual memory was assessed by placing the mice back into the freshly rescented (0.3% Ammonium hydroxide) conditioning chambers in which they were trained, for a 4-min test period in the absence of footshock. Conditioned fear to the context was assessed by measuring the freezing response according to the methods of Fanselow and Bolles (1979). […] An observer, blind to the drug(s) used, scored each mouse every 8 s, for a total of 4 min, for presence or absence of freezing. […]

C57B1/6 mice [3] = test: Spontaneous locomotive activity; assay type: in vivo; conditions: 30 mg/kg
From the text: as §1
Male C57B1/6 mice were obtained from Charles Rivers Laboratories (Holister, Calif.) at 6 weeks of age. […] All animal protocols used in this study conform to the guidelines determined by the National Institute of Health (USA) Office for Protection from Research Risks and are approved by the Animal Care and Use Committee of the Palo Alto Veterans Administration Medical Center, Palo, Alto, Calif. […]
Mice were allowed to acclimate to the test room for 30 min prior to drug injection. […] Spontaneous locomotor activity was measured via seven sets of photoelectric sensors evenly spaced along the length of the monitoring chamber, 4 cm above the floor of the chamber (San Diego Instruments, San Diego, Calif.). Total activity was recorded in arbitrary units reflective of the number of times a mouse interrupts the photoelectric sensors during a 10-min monitoring session. […]

Tail flick assay = conditions: in vivo

SMILES | affinity at other BzR/GABA(A) subtypes than α5 (in words) [1] | melting point [°C] | fear conditioned contextual memory, impairment by scopolamine (in words) (C57B1/6 mice [2]) | reversal of scopolamine induced memory deficits (in words) (C57B1/6 mice [2]) | reversal of scopolamine induced memory deficits (in words) (C57B1/6 mice [2]; listed as XLi 356) | reversal of scopolamine induced memory deficits (in words) (C57B1/6 mice [2]; listed as Xli356) | locomotion (in words) (C57B1/6 mice [3]) | analgesic effect in tail flick assay (in words) (Tail flick assay)
CCOC(=O)c1ncn2c1CN=C(c1ccccc1)c1cc(-c3ccccc3)ccc1-2 [DM-I-81, Ethyl 8-phenyl-6-phenyl-4H-benzo[f]imidazo[1,5-a][1,4]diazepine-3-carboxylate] | binds only to α5β3γ2 subtypes | 200 to 201 | – | – | – | – | – | –
COCc1ncn2c1CN(C)C(=O)c1cc(Cl)ccc1-2 [PWZ-029, methyl(8-chloro-5,6-dihydro-5-methyl-6-oxo-4H-imidazo[1,5-α][1,4]benzodiazepin-3-yl)methyl ether] | – | – | attenuation of contextual memory impairment | reverse scopolamine induced memory deficits | – | – | – | –
CCc1ccc2c(c1)C(=O)N(C)Cc1c(C(=O)OCCCOC(=O)c3ncn4c3CN(C)C(=O)c3cc(CC)ccc3-4)ncn1-2 [XLi356, 1,3-Bis(8-ethyl-5,6-dihydro-5-methyl-6-oxo-4H-imidazo[1,5a][1,4]benzodiazepine-3-carboxy)propyl diester] | – | – | attenuates the impairment of memory | – | potently reverse scoploamine induced memory deficiencies | reverse scopolamine induced memory deficits | reduced | No analgesic effect
